Like-named read-outs stand apart in the source and are kept apart here.
Molecular target: T1, Human Polymorphonuclear Leukocyte Elastase (Homo sapiens, UniProt P08246)
T1 sequence (P08246 30-267): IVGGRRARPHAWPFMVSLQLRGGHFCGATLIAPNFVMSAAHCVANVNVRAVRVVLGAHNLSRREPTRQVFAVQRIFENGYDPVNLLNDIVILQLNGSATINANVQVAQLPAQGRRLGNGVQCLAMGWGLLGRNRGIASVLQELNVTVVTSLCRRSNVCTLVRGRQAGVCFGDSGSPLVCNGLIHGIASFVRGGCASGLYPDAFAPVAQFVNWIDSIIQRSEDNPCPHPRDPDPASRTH
Test: Inhibition of human polymorphonuclear leukocyte elastase via hydrolysis of Boc-AAPAN or Boc-AAPVN
Type: biochemical
Details: second order rate constant for inactivation of the enzyme, read-out: Kobs /[I]
Protocol: Enzyme Assays for the Inhibition of Human Polymorphonuclear Leukocyte Elastase Via Hydrolysis of N-t-Boc-alanyl-alanyl-prolylalanine-p-nitroanilide (Boc-AAPAN) or […] (Boc-AAPVN) Reagent:
0.05M TES (N-tris[hydroxymethyl]methyl-2-amino-ethanesulfonic acid) Buffer, pH 7.5.
0.2 mM Boc-AAPAN or Boc-AAPVN.
To prepare substrate, the solid was first dissolved in 10.0 ml DMSO. Buffer at pH 7.5 was then added to a final volume of 100 ml.
Crude extract of human polymorphonuclear leukocytes (PMN) containing elastase activity.
Inhibitors (azetidinones) to be tested dissolved in DMSO just before use.
To 1.0 ml of 0.2 mM Boc-AAPAN in a cuvette, 0.01-0.1 ml of DMSO with or without inhibitor was added. After mixing, a measurement was taken at 410 mμ to detect any spontaneous hydrolysis due to presence of test compound. 0.05 Milliliters of PMN extract was then added and the ΔOD/min at 410 mμ was measured and recorded. Beckman model 35 spectrophotometer was used.
Results in Tables I to III were reported as ID50, effective dosage in micrograms per milliliter (μg/ml) for 50% inhibition of the enzyme activity 2 minutes after zero time.
Results were also expressed as Ki, the micromolar concentration of the inhibitor (μM) giving 50% of the control enzyme activity; or as ^k obs/I which is the second order rate constant in per mole per second for inactivation of the enzyme.
The elastase activity in the crude PMN extract may vary from one preparation to another. A control of each new batch is run, and the volume added in the assay procedure is adjusted according to activity.

kinact/KI (pH 7.5, Table III)	kinact/KI (pH 7.5, Table I)	Structure (SMILES)
1e+06 M⁻¹ s⁻¹		CCC[C@@H](NC(=O)N1C(=O)C(CC)(CC)[C@@H]1Oc1ccc(CN(CCOC)CCOC)c(Cl)c1)c1ccc(C)cc1
1.7e+06 M⁻¹ s⁻¹		CCC[C@@H](NC(=O)N1C(=O)C(CC)(CC)[C@@H]1Oc1ccc(CN(CC)CCOCCOC)c(OC)c1)c1ccc(C)cc1
550000 M⁻¹ s⁻¹		CCC[C@@H](NC(=O)N1C(=O)C(CC)(CC)[C@@H]1Oc1ccc(CN(CC)CCOC)c(Cl)c1)c1ccc(C)cc1
450000 M⁻¹ s⁻¹		CCC[C@@H](NC(=O)N1C(=O)C(CC)(CC)[C@@H]1Oc1ccc(CN(CC)CCOC)c(C)c1)c1ccc(C)cc1
400000 M⁻¹ s⁻¹		CCC[C@@H](NC(=O)N1C(=O)C(CC)(CC)[C@@H]1Oc1ccc(CN(CC)C(C)COC)c(C)c1)c1ccc(C)cc1 (stereo partly drawn)
1.3e+06 M⁻¹ s⁻¹		CCC[C@@H](NC(=O)N1C(=O)C(CC)(CC)[C@@H]1Oc1ccc(CN(CC)C(C)COC)c(OC)c1)c1ccc(C)cc1 (stereo partly drawn)
300000 M⁻¹ s⁻¹		CCC[C@@H](NC(=O)N1C(=O)C(CC)(CC)[C@@H]1Oc1cc(C)c(CN(C)CCOC)c(C)c1)c1ccc(C)cc1
1e+06 M⁻¹ s⁻¹		CCC[C@@H](NC(=O)N1C(=O)C(CC)(CC)[C@@H]1Oc1ccc(CN(C)CCOC)c(Cl)c1)c1ccc(C)cc1
540000 M⁻¹ s⁻¹		CCC[C@@H](NC(=O)N1C(=O)C(CC)(CC)[C@@H]1Oc1ccc(CN(C)CCOC)c(C)c1)c1ccc(C)cc1
650000 M⁻¹ s⁻¹		CCC[C@@H](NC(=O)N1C(=O)C(CC)(CC)[C@@H]1Oc1ccc(CN(C)C(C)COC)c(Cl)c1)c1ccc(C)cc1 (stereo partly drawn)
1.65e+06 M⁻¹ s⁻¹		CCC[C@@H](NC(=O)N1C(=O)C(CC)(CC)[C@@H]1Oc1ccc(CN(C)C(C)COC)c(OC)c1)c1ccc(C)cc1 (stereo partly drawn)
1.12e+06 M⁻¹ s⁻¹		CCC[C@@H](NC(=O)N1C(=O)C(CC)(CC)[C@@H]1Oc1ccc(CN(CC)CCOC)cc1)c1ccc(OCC)cc1
1.3e+06 M⁻¹ s⁻¹		CCC[C@@H](NC(=O)N1C(=O)C(CC)(CC)[C@@H]1Oc1ccc(CN(C)CCOC)cc1)c1ccc(OCC)cc1
1e+06 M⁻¹ s⁻¹		CCC[C@@H](NC(=O)N1C(=O)C(CC)(CC)[C@@H]1Oc1ccc(CN(CC)CCOC)cc1)c1ccc(OC)cc1
900000 M⁻¹ s⁻¹		CCC[C@@H](NC(=O)N1C(=O)C(CC)(CC)[C@@H]1Oc1ccc(CN(C)CCOC)cc1)c1ccc(OC)cc1
1.9e+06 M⁻¹ s⁻¹		CCC[C@@H](NC(=O)N1C(=O)C(CC)(CC)[C@@H]1Oc1ccc(CN(CC)CCOC)cc1)c1ccc2c(c1)OCO2
1.6e+06 M⁻¹ s⁻¹		CCC[C@@H](NC(=O)N1C(=O)C(CC)(CC)[C@@H]1Oc1ccc(CN(CC)C(C)COC)cc1)c1ccc2c(c1)OCO2 (stereo partly drawn)
1.6e+06 M⁻¹ s⁻¹		CCC[C@@H](NC(=O)N1C(=O)C(CC)(CC)[C@@H]1Oc1ccc(CNC2CC2)cc1)c1ccc2c(c1)OCO2
1.1e+06 M⁻¹ s⁻¹		CCC[C@@H](NC(=O)N1C(=O)C(CC)(CC)[C@@H]1Oc1ccc(CN(CC)CCOC)cc1)c1ccc2occc2c1
1.05e+06 M⁻¹ s⁻¹		CCC[C@@H](NC(=O)N1C(=O)C(CC)(CC)[C@@H]1Oc1ccc(CN(CC)C(C)COC)cc1)c1ccc2occc2c1 (stereo partly drawn)

kinact/KI (pH 7.5, Table III)	kinact/KI (pH 7.5, Table I)	Structure (SMILES)
	1.4e+06 M⁻¹ s⁻¹	CCC[C@@H](NC(=O)N1C(=O)C(CC)(CC)[C@@H]1Oc1ccc(CN(C)CCOC(=O)N2CCOCC2)cc1)c1ccc(C)cc1
	900000 M⁻¹ s⁻¹	CCC[C@@H](NC(=O)N1C(=O)C(CC)(CC)[C@@H]1Oc1ccc(CN(C)CC2CCCCO2)cc1)c1ccc(C)cc1 (stereo partly drawn)
	725000 M⁻¹ s⁻¹	CCC[C@@H](NC(=O)N1C(=O)C(CC)(CC)[C@@H]1Oc1ccc(CN2CCC[C@@H]2CO)cc1)c1ccc(C)cc1
	1.55e+06 M⁻¹ s⁻¹	CCC[C@@H](NC(=O)N1C(=O)C(CC)(CC)[C@@H]1Oc1ccc(CN2CCC[C@H]2COC)cc1)c1ccc(C)cc1
	715000 M⁻¹ s⁻¹	CCC[C@@H](NC(=O)N1C(=O)C(CC)(CC)[C@@H]1Oc1ccc(CN2CCN(c3ncccn3)CC2)cc1)c1ccc(C)cc1
	730000 M⁻¹ s⁻¹	CCC[C@@H](NC(=O)N1C(=O)C(CC)(CC)[C@@H]1Oc1ccc(CN2CCN(C(=O)OC)CC2)cc1)c1ccc(C)cc1
	1.6e+06 M⁻¹ s⁻¹	CCC[C@@H](NC(=O)N1C(=O)C(CC)(CC)[C@@H]1Oc1ccc(CN2CCN(C(=O)C(C)C)CC2)cc1)c1ccc(C)cc1
	1.4e+06 M⁻¹ s⁻¹	CCC[C@@H](NC(=O)N1C(=O)C(CC)(CC)[C@@H]1Oc1ccc(CN2CCN(C(=O)N(CC)CC)CC2)cc1)c1ccc(C)cc1
1.9e+06 M⁻¹ s⁻¹		CCC[C@@H](NC(=O)N1C(=O)C(CC)(CC)[C@@H]1Oc1ccc(C(COC)N(C)C)cc1)c1ccc2c(c1)OCO2 (mixture of isomers) [3,3-Diethyl-1-[(R)-α-(n-propyl)-(3,4-dioxomethylene)benzylaminocarbonyl]-4-(S)-[4-{1-(RS)-(N,N-dimethylamino)-2-methoxyethyl}phenoxy]azetidin-2-one]
1.8e+06 M⁻¹ s⁻¹		CCC[C@@H](NC(=O)N1C(=O)C(CC)(CC)[C@@H]1Oc1ccc(C(COC)N(C)CCC)cc1)c1ccc2c(c1)OCO2 (mixture of isomers) [3,3-Diethyl-1-[(R)-α-(n-propyl)-(3,4-dioxomethylene)benzylaminocarbonyl]-4-(S)-[4-{1-(RS)-(N-(n-propyl)-N-(methyl)amino)-2-methoxyethyl}phenoxy]azetidin-2-one]
1.65e+06 M⁻¹ s⁻¹		CCC[C@@H](NC(=O)N1C(=O)C(CC)(CC)[C@@H]1Oc1ccc(C(COC)N(C)CC)cc1)c1ccc2c(c1)OCO2 (mixture of isomers) [3,3-Diethyl-1-[(R)-α-(n-propyl)-(3,4-dioxomethylene)benzylaminocarbonyl]-4-(S)-[4-{1-(RS)-(N-ethyl-N-(methyl)amino)-2-methoxyethyl}phenoxy]azetidin-2-one]
	1.7e+06 M⁻¹ s⁻¹	CCC[C@@H](NC(=O)N1C(=O)C(CC)(CC)[C@@H]1Oc1ccc(C(COC)N2CCCC2)cc1)c1ccc(C)cc1 (mixture of isomers) [R4+R5=--CH2 CH2 CH2 CH2 --; R6=CH2 OMe, 3,3-Diethyl-1-[(R)-α-(n-propyl)-4-(methyl)benzylaminocarbonyl]-4-(S)-[4-{1-(RS)-(1-pyrrolidino)-2-methoxyethyl}phenoxy]azetidin-2-one]
	940000 M⁻¹ s⁻¹	CCC[C@@H](NC(=O)N1C(=O)C(CC)(CC)[C@@H]1Oc1ccc(C2CCCN2CCOC)cc1)c1ccc(C)cc1 (mixture of isomers) [R4=CH2 CH2 OMe; R5+R6=--CH2 CH2 CH2 --, 3,3-Diethyl-1-[(R)-α-(n-propyl)-4-(methyl)benzylaminocarbonyl]-4-(S)-[4-{2-(RS)-(N-(2-methoxyethyl)pyrrolidino)}phenoxy]azetidin-2-one]
	1.1e+06 M⁻¹ s⁻¹	CCC[C@@H](NC(=O)N1C(=O)C(CC)(CC)[C@@H]1Oc1ccc(C(COC)N(CC)CC)cc1)c1ccc(C)cc1 (mixture of isomers) [R4=Et; R5=Et; R6=CH2 OMe, 3,3-Diethyl-1-[(R)-α-(n-propyl)-4-(methyl)benzylaminocarbonyl]-4-(S)-[4-{1-(RS)-(N,N-diethylamino)-2-methoxyethyl}phenoxy]azetidin-2-one]
	1e+06 M⁻¹ s⁻¹	CCC[C@@H](NC(=O)N1C(=O)C(CC)(CC)[C@@H]1Oc1ccc(C(COC)N(C)CC)cc1)c1ccc(C)cc1 (mixture of isomers) [R4=Me; R5=Et; R6=CH2 OMe, 3,3-Diethyl-1-[(R)-α-(n-propyl)-4-(methyl)benzylaminocarbonyl]-4-(S)-[4-{1-(RS)-(N-ethyl-N-(methyl)amino)2-methoxyethyl}-phenoxy]azetidin-2-one]
	1.28e+06 M⁻¹ s⁻¹	CCC[C@@H](NC(=O)N1C(=O)C(CC)(CC)[C@@H]1Oc1ccc(C(COC)N(C)C)cc1)c1ccc(C)cc1 (mixture of isomers) [R4=Me; R5=Me; R6=CH2 OMe, 3,3-Diethyl-1-[(R)-α-(n-propyl)-4-(methyl)benzylaminocarbonyl]-4-(S)-[4-{1-(RS)-(N,N-dimethylamino)-2-methoxyethyl}phenoxy]azetidin-2-one]
	1.5e+06 M⁻¹ s⁻¹	CCC[C@@H](NC(=O)N1C(=O)C(CC)(CC)[C@@H]1Oc1ccc(C(COC)N(C)CCC)cc1)c1ccc(C)cc1 (mixture of isomers) [R4=Me; R5=n-Pr; R6=CH2 OMe, 3,3-Diethyl-1-[(R)-α-(n-propyl)-4-(methyl)benzylaminocarbonyl]-4-(S)-[4-{1-(RS)-(N-(n-propyl)-N-(methyl)amino)-2-methoxyethyl}phenoxy]azetidin-2-one]
	960000 M⁻¹ s⁻¹	CCC[C@@H](NC(=O)N1C(=O)C(CC)(CC)[C@@H]1Oc1ccc(C(C)N2CCC[C@H]2COC)cc1)c1ccc(C)cc1 (single isomer, unassigned) [R4+R5=--CH2 CH2 CH2 CH(S--CH2 OMe)--; R6=Me (isomer A)]
4e+06 M⁻¹ s⁻¹		CCC[C@@H](NC(=O)N1C(=O)C(CC)(CC)[C@@H]1Oc1ccc(CN2CCN(C(=O)N(C)C)CC2)cc1)c1ccc2c(c1)OCO2 [(4S)-3,3-Diethyl-1-[(R)-α-n-propyl-3,4-methylenedioxy)benzylaminocarbonyl]-4-[(4-((4-diemthylaminocarbonyl)piperazin-1-yl)methyl)phenoxy]azetidin-2-one]

Source: patent publication US5952321A, “Substituted azetidinones as anti-inflammatory and antidegenerative agents” (Merck & Co., Inc., priority 1996, dated 1999)
